In patent US5591714A, “Derivatives of A82846” (priority 1994, dated 1997) one finds MIC and ED50 data, which are given here for 6 compounds.

For experiment [1], the system named is Klebsiella pneumoniae KAE. The experiment in a line: MIC, standard agar-dilution assay. Type of experiment: cell-based. As for the experimental part:
(§1) The formula I compounds have in vitro and in vivo activity against Gram-positive pathogenic bacteria. The MIC's were determined using a standard agar-dilution assays.

For experiment [2], the system named is Streptococcus pyogenes C203. The experiment in a line: MIC, standard agar-dilution assay. Type of experiment: cell-based. As for the experimental part:
as §1

The subject of experiment [3] is Staphylococcus aureus NRRL X1.1. The experiment in a line: MIC, standard agar-dilution assay. Type of experiment: cell-based. As for the experimental part:
as §1

The test system of experiment [4] is Escherichia coli N10. The experiment in a line: MIC, standard agar-dilution assay. Type of experiment: cell-based. As for the experimental part:
as §1

Experiment [5] concerns Staphylococcus aureus X400. The experiment in a line: MIC, standard agar-dilution assay. Type of experiment: cell-based. As for the experimental part:
as §1

Experiment [6] relates to Klebsiella pneumoniae X68. The experiment in a line: MIC, standard agar-dilution assay. Type of experiment: cell-based. As for the experimental part:
as §1

For experiment [7], the system named is Klebsiella pneumoniae X26. The experiment in a line: MIC, standard agar-dilution assay. Type of experiment: cell-based. As for the experimental part:
as §1

Experiment [8] deals with Escherichia coli TEM. The experiment in a line: MIC, standard agar-dilution assay. Type of experiment: cell-based. As for the experimental part: as §1
Experiment [9] deals with Staphylococcus epidermidis 222. The experiment in a line: MIC, standard agar-dilution assay. Type of experiment: cell-based. As for the experimental part:
as §1

Experiment [10] has as its system Staphylococcus aureus V41. The experiment in a line: MIC, standard agar-dilution assay. Type of experiment: cell-based. As for the experimental part:
as §1

Experiment [11] has as its system Haemophilus influenzae 76. The experiment in a line: MIC, standard agar-dilution assay. Type of experiment: cell-based. As for the experimental part:
as §1

Experiment [12] concerns Escherichia coli EC14. The experiment in a line: MIC, standard agar-dilution assay. Type of experiment: cell-based. As for the experimental part:
as §1

The test system of experiment [13] is Haemophilus influenzae C.L. The experiment in a line: MIC, standard agar-dilution assay. Type of experiment: cell-based. As for the experimental part: as §1
The subject of experiment [14] is Staphylococcus epidermidis EPI270. The experiment in a line: MIC, standard agar-dilution assay. Type of experiment: cell-based. As for the experimental part:
as §1

For experiment [15], the system named is Streptococcus pneumoniae. The experiment in a line: In vivo activity, experimentally infected mice (ED50). The note with it: Streptococcus pneumoniae infection; doses administered subcutaneously to mice 1 and 4 hours postinfection.
Experiment [16] relates to Enterococcus faecium X66. The experiment in a line: MIC, standard agar-dilution assay. Type of experiment: cell-based. As for the experimental part:
as §1
^b Formerly Streptococcus faecium X66

For experiment [17], the system named is Staphylococcus aureus. The experiment in a line: In vivo activity, experimentally infected mice (ED50). The following applies: Staphylococcus aureus infection; doses administered subcutaneously to mice 1 and 4 hours postinfection.
Experiment [18] has as its system Enterococcus faecalis 2041. The experiment in a line: MIC, standard agar-dilution assay. Type of experiment: cell-based. As for the experimental part: as §1
^c Formerly Streptococcus faecalis 2041

Experiment [19] deals with Streptococcus pneumoniae Park 1. Type of experiment: cell-based. As for the experimental part:
as §1

For experiment [20], the system named is Staphylococcus aureus S13E. Type of experiment: cell-based. As for the experimental part: as §1
Experiment [21] relates to Streptococcus pyogenes. The experiment in a line: In vivo activity, experimentally infected mice (ED50). The following applies: Streptococcus pyogenes infection; doses administered subcutaneously to mice 1 and 4 hours postinfection.

Structures are written as SMILES. Converted amounts (≈) assume the structure as drawn.

As to `CCCCCN(C)[C@H](CC(C)C)C(=O)N[C@H]1C(=O)N[C@@H](CC(N)=O)C(=O)N[C@H]2C(=O)N[C@H]3C(=O)N[C@H](C(=O)N[C@H](C(=O)O)c4cc(O)cc(O)c4-c4cc3ccc4O)[C@H](O[C@H]3C[C@](C)(N)[C@@H](O)[C@H](C)O3)c3ccc(cc3)Oc3cc2cc(c3O[C@@H]2O[C@H](CO)[C@@H](O)[C@H](O)[C@H]2O[C@H]2C[C@](C)(N)[C@@H](O)[C@H](C)O2)Oc2ccc(cc2Cl)[C@H]1O` [Compound 6], the MIC in [1] was greater than 128 µg/mL; in [2] it was “.125 µg/mL”; in experiment [3], “.25 µg/mL”; in [4], greater than 128 µg/mL; in [5], “.25 µg/mL”; in experiment [6], greater than 128 µg/mL. Further, the MIC in [7] was greater than 128 µg/mL; in experiment [8], greater than 128 µg/mL; in [9], “.5 µg/mL”; in [10], “.25 µg/mL”; in experiment [11] it was greater than 128 µg/mL; in experiment [12], greater than 128 µg/mL. The MIC in experiment [13] was greater than 128 µg/mL; in [14], “.5 µg/mL”; in [16], 1 µg/mL (≈ 0.614 µM); in experiment [18], 1 µg/mL (≈ 0.614 µM); in experiment [19] it was “.125 µg/mL”; in experiment [20], “.25 µg/mL”. For the same compound, the ED50 in experiment [15] is recorded as 0.94 mg/kg/2; in [17] it was 0.88 mg/kg/2; in [21] it was 0.67 mg/kg/2.
For the compound `CCCCCN[C@@]1(C)C[C@H](O[C@H]2[C@H](Oc3c4cc5cc3Oc3ccc(cc3Cl)[C@@H](O)[C@@H](NC(=O)[C@@H](CC(C)C)N(C)CCCCC)C(=O)N[C@@H](CC(N)=O)C(=O)N[C@H]5C(=O)N[C@H]3C(=O)N[C@H](C(=O)N[C@H](C(=O)O)c5cc(O)cc(O)c5-c5cc3ccc5O)[C@H](O[C@H]3C[C@](C)(N)[C@@H](O)[C@H](C)O3)c3ccc(cc3)O4)O[C@H](CO)[C@@H](O)[C@@H]2O)O[C@@H](C)[C@@H]1O` [Compound 7], the MIC in experiment [1] is greater than 128 µg/mL; in experiment [2], “.5 µg/mL”; in experiment [3], 1 µg/mL (≈ 0.589 µM); in experiment [4], greater than 128 µg/mL; in experiment [5], 1 µg/mL (≈ 0.589 µM); in experiment [6], greater than 128 µg/mL. Moreover, the MIC is greater than 128 µg/mL in experiment [7]; greater than 128 µg/mL in [8]; 1 µg/mL (≈ 0.589 µM) in [9]; 1 µg/mL (≈ 0.589 µM) in [10]; greater than 128 µg/mL in experiment [11]; greater than 128 µg/mL in experiment [12]. For the same compound, the MIC was greater than 128 µg/mL in [13]; 2 µg/mL (≈ 1.18 µM) in experiment [14]; 2 µg/mL (≈ 1.18 µM) in experiment [16]; 2 µg/mL (≈ 1.18 µM) in [18]; “.5 µg/mL” in experiment [19]; 1 µg/mL (≈ 0.589 µM) in [20]. The ED50 was 0.98 mg/kg/2 in experiment [15], 4.09 mg/kg/2 in experiment [17] and 0.83 mg/kg/2 in [21].
For the compound `CN[C@H](CC(C)C)C(=O)N[C@H]1C(=O)N[C@@H](CC(N)=O)C(=O)N[C@H]2C(=O)N[C@H]3C(=O)N[C@H](C(=O)N[C@H](C(=O)O)c4cc(O)cc(O)c4-c4cc3ccc4O)[C@H](O[C@H]3C[C@](C)(N)[C@@H](O)[C@H](C)O3)c3ccc(cc3)Oc3cc2cc(c3O[C@@H]2O[C@H](CO)[C@@H](O)[C@H](O)[C@H]2O[C@H]2C[C@](C)(NCc3ccccc3)[C@@H](O)[C@H](C)O2)Oc2ccc(cc2Cl)[C@H]1O` [Compound 10], the MIC in experiment [1] was greater than 128 µg/mL; in experiment [2], “.25 µg/mL”; in [3] it was “.25 µg/mL”; in experiment [4], greater than 128 µg/mL; in experiment [5], “.5 µg/mL”; in experiment [6], greater than 128 µg/mL. Besides, the MIC in experiment [7] was greater than 128 µg/mL; in experiment [8], greater than 128 µg/mL; in [9] it was “.25 µg/mL”; in [10] it was “.25 µg/mL”; in experiment [11], greater than 128 µg/mL; in experiment [12], greater than 128 µg/mL. In addition, the MIC in experiment [13] was greater than 128 µg/mL; in experiment [14], “.25 µg/mL”; in experiment [16] it was “.25 µg/mL”; in [18], “.5 µg/mL”; in [19] it was “.125 µg/mL”; in experiment [20] it was “.125 µg/mL”. Further, the ED50 in [15] was determined as 0.4 mg/kg/2; in experiment [17], 0.46 mg/kg/2; in experiment [21], 0.2 mg/kg/2.
On to `CCN(CC)c1ccc(CN[C@@]2(C)C[C@H](O[C@H]3[C@H](Oc4c5cc6cc4Oc4ccc(cc4Cl)[C@@H](O)[C@@H](NC(=O)[C@@H](CC(C)C)NC)C(=O)N[C@@H](CC(N)=O)C(=O)N[C@H]6C(=O)N[C@H]4C(=O)N[C@H](C(=O)N[C@H](C(=O)O)c6cc(O)cc(O)c6-c6cc4ccc6O)[C@H](O[C@H]4C[C@](C)(N)[C@@H](O)[C@H](C)O4)c4ccc(cc4)O5)O[C@H](CO)[C@@H](O)[C@@H]3O)O[C@@H](C)[C@@H]2O)cc1` [Compound 17], for which the MIC is greater than 128 µg/mL in [1]; “.25 µg/mL” in experiment [2]; “.5 µg/mL” in [3]; greater than 128 µg/mL in experiment [4]; “.5 µg/mL” in experiment [5]; greater than 128 µg/mL in [6]. Besides, the MIC is greater than 128 µg/mL in experiment [7]; greater than 128 µg/mL in [8]; “.5 µg/mL” in experiment [9]; “.5 µg/mL” in [10]; greater than 128 µg/mL in [11]; greater than 128 µg/mL in experiment [12]. Further, the MIC in experiment [13] is greater than 128 µg/mL; in experiment [14], 1 µg/mL (≈ 0.582 µM); in experiment [16] it was 1 µg/mL (≈ 0.582 µM); in experiment [18], 1 µg/mL (≈ 0.582 µM); in experiment [19], “.25 µg/mL”; in experiment [20], “.5 µg/mL”. For the same compound, the ED50 is listed as 0.33 mg/kg/2 in experiment [15], 0.78 mg/kg/2 in [17] and 0.23 mg/kg/2 in experiment [21].
On to `CN[C@H](CC(C)C)C(=O)N[C@H]1C(=O)N[C@@H](CC(N)=O)C(=O)N[C@H]2C(=O)N[C@H]3C(=O)N[C@H](C(=O)N[C@H](C(=O)O)c4cc(O)cc(O)c4-c4cc3ccc4O)[C@H](O[C@H]3C[C@](C)(N)[C@@H](O)[C@H](C)O3)c3ccc(cc3)Oc3cc2cc(c3O[C@@H]2O[C@H](CO)[C@@H](O)[C@H](O)[C@H]2O[C@H]2C[C@](C)(NCc3ccc(Br)cc3)[C@@H](O)[C@H](C)O2)Oc2ccc(cc2Cl)[C@H]1O` [Compound 18], for which the MIC in experiment [1] was greater than 128 µg/mL; in [2], “.125 µg/mL”; in experiment [3], 1 µg/mL (≈ 0.579 µM); in experiment [4], greater than 128 µg/mL; in [5] it was 1 µg/mL (≈ 0.579 µM); in experiment [6], greater than 128 µg/mL. Further, the MIC is greater than 128 µg/mL in [7]; greater than 128 µg/mL in experiment [8]; “.5 µg/mL” in experiment [9]; 1 µg/mL (≈ 0.579 µM) in [10]; greater than 128 µg/mL in experiment [11]; greater than 128 µg/mL in experiment [12]. The MIC was greater than 128 µg/mL in experiment [13]; 1 µg/mL (≈ 0.579 µM) in [14]; 1 µg/mL (≈ 0.579 µM) in experiment [16]; 1 µg/mL (≈ 0.579 µM) in [18]; “.25 µg/mL” in experiment [19]; 1 µg/mL (≈ 0.579 µM) in experiment [20]. Besides, the ED50 in [15] is on record as 0.25 mg/kg/2; in [17] it was 1.74 mg/kg/2; in [21], 0.15 mg/kg/2.
As for `CN[C@H](CC(C)C)C(=O)N[C@H]1C(=O)N[C@@H](CC(N)=O)C(=O)N[C@H]2C(=O)N[C@H]3C(=O)N[C@H](C(=O)N[C@H](C(=O)O)c4cc(O)cc(O)c4-c4cc3ccc4O)[C@H](O[C@H]3C[C@](C)(N)[C@@H](O)[C@H](C)O3)c3ccc(cc3)Oc3cc2cc(c3O[C@@H]2O[C@H](CO)[C@@H](O)[C@H](O)[C@H]2O[C@H]2C[C@](C)(NCCc3ccccc3)[C@@H](O)[C@H](C)O2)Oc2ccc(cc2Cl)[C@H]1O` [Compound 24], the MIC in [1] was greater than 128 µg/mL; in experiment [2], “.25 µg/mL”; in [3] it was “.5 µg/mL”; in [4] it was greater than 128 µg/mL; in experiment [5] it was 1 µg/mL (≈ 0.602 µM); in [6] it was greater than 128 µg/mL. Further, the MIC is greater than 128 µg/mL in experiment [7]; greater than 128 µg/mL in experiment [8]; “.5 µg/mL” in [9]; “.5 µg/mL” in [10]; greater than 128 µg/mL in experiment [11]; greater than 128 µg/mL in [12]. Also, the MIC was greater than 128 µg/mL in experiment [13]; “.5 µg/mL” in experiment [14]; “.5 µg/mL” in experiment [16]; “.5 µg/mL” in experiment [18]; “.25 µg/mL” in [19]; 1 µg/mL (≈ 0.602 µM) in experiment [20]. Also, the results for the ED50 in experiment [15], in experiment [17] and in experiment [21] were 0.25 mg/kg/2, 0.72 mg/kg/2 and 0.09 mg/kg/2, respectively.
